Test [1] addresses LIM domain kinase 1 (Homo sapiens, UniProt P53667).
Test [2] concerns the target T1, Interleukin-1 receptor-associated kinase 3 (Homo sapiens, UniProt Q9Y616).
T1 sequence (Q9Y616 whole entry): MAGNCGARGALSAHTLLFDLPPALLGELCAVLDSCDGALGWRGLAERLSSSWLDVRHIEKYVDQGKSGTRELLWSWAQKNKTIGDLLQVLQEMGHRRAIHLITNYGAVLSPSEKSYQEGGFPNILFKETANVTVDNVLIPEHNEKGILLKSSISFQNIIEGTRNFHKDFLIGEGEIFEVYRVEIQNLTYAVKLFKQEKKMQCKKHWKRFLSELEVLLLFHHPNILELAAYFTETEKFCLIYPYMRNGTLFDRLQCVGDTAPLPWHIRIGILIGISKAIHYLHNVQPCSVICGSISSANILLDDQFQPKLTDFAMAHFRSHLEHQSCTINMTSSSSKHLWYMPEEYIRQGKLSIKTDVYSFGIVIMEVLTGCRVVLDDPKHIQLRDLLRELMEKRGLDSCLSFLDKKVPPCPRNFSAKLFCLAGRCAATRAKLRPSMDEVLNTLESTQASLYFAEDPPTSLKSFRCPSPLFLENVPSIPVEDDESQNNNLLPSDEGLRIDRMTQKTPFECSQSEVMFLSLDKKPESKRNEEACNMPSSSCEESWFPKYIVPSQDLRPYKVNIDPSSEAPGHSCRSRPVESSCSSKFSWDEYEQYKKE

The target of test [3] is Structural maintenance of chromosomes protein 2 (Homo sapiens, UniProt O95347).
Structural maintenance of chromosomes protein 2, sequence (O95347 whole entry): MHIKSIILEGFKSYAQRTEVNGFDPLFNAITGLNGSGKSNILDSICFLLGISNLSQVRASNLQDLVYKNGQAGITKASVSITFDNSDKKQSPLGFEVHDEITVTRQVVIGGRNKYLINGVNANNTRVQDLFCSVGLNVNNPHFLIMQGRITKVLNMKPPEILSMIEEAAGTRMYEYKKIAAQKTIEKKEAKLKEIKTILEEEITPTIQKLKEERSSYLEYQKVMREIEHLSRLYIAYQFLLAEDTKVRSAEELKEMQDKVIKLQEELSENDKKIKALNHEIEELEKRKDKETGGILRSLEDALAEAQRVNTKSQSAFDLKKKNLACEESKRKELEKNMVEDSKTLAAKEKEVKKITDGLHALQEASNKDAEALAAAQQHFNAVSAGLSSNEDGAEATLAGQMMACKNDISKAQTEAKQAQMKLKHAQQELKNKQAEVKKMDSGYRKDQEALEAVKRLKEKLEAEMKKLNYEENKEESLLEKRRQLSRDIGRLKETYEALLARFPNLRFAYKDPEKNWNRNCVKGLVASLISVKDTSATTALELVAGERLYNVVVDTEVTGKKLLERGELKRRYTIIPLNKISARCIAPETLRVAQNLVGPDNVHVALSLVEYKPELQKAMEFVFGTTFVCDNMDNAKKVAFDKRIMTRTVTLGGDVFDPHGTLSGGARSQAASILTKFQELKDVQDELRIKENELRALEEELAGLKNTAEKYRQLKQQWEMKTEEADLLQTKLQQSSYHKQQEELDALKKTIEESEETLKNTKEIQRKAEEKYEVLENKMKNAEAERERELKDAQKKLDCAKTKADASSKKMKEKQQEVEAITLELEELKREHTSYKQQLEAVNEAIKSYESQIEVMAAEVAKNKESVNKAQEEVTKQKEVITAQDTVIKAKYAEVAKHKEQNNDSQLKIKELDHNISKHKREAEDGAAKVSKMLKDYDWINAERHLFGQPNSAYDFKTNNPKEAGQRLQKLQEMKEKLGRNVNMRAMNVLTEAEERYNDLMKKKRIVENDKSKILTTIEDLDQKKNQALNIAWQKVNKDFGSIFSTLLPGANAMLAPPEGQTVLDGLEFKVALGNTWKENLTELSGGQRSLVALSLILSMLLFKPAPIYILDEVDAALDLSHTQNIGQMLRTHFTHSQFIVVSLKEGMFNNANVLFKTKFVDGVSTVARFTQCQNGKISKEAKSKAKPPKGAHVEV
The target in test [4] is T2, Serine/threonine-protein kinase A-Raf (Homo sapiens, UniProt P10398).
T2 sequence (P10398 whole entry): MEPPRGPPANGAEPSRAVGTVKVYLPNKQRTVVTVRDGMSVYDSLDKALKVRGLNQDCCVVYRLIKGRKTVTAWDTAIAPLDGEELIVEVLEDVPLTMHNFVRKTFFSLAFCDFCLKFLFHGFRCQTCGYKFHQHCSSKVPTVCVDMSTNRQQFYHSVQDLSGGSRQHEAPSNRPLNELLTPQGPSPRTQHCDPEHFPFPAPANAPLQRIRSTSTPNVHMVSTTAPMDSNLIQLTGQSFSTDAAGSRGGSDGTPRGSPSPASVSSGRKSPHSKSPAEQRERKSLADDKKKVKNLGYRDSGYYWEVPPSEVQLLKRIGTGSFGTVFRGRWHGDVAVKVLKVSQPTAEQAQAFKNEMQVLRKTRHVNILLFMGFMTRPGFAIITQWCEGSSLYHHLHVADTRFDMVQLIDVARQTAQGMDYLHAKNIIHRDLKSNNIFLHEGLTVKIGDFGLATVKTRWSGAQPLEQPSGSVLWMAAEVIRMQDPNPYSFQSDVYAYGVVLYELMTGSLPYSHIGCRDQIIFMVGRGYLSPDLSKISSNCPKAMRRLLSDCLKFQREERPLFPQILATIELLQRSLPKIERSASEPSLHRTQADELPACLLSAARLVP

In test [5] the target is Putative heat shock protein HSP 90-beta 2 (Homo sapiens, UniProt Q58FF8).
Putative heat shock protein HSP 90-beta 2, sequence (Q58FF8 whole entry): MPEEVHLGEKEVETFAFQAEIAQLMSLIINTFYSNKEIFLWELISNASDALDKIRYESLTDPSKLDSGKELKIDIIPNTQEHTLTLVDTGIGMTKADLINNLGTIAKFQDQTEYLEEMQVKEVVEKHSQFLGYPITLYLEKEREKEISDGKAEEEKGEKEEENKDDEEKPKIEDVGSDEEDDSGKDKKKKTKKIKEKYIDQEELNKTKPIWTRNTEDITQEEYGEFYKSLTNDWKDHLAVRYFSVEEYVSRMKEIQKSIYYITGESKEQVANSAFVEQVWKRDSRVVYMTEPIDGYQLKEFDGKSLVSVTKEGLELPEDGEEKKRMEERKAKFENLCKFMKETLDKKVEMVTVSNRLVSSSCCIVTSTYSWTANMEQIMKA
Test [6] deals with Mitogen-activated protein kinase 11 (Homo sapiens, UniProt Q15759).
Mitogen-activated protein kinase 11, sequence (Q15759 whole entry): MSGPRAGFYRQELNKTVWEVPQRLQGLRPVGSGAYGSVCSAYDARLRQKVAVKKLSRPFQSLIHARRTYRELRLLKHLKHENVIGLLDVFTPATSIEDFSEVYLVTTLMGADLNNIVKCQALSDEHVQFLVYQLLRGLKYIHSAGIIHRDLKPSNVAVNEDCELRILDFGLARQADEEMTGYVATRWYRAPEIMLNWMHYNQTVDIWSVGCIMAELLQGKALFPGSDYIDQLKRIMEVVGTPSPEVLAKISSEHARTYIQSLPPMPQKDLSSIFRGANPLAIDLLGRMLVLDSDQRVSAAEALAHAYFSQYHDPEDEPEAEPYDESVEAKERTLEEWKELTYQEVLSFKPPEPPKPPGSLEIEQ
Test [7] addresses Serine/threonine-protein kinase pim-1 (Homo sapiens, UniProt P11309).
For test [8], the target named is T3, Very long-chain specific acyl-CoA dehydrogenase, mitochondrial (Homo sapiens, UniProt P49748).
T3 sequence (P49748 whole entry): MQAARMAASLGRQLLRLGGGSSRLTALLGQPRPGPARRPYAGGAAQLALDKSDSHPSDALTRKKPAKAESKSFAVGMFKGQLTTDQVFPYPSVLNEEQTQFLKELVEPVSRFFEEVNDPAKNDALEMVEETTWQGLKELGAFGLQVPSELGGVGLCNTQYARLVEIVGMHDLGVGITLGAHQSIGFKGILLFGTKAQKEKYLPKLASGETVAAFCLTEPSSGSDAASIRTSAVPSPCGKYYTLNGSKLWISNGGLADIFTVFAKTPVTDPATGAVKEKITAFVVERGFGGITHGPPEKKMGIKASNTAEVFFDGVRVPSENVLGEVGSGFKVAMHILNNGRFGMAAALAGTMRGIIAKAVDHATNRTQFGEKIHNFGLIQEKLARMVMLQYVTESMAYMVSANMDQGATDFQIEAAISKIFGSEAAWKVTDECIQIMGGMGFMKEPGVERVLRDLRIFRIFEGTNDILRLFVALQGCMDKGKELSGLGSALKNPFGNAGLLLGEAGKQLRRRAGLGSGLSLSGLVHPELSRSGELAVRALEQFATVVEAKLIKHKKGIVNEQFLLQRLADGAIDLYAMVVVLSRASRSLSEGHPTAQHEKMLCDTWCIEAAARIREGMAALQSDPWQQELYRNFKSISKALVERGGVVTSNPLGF

In test [9] the target is T4, Pyridoxal kinase (Homo sapiens, UniProt O00764).
T4 sequence (O00764 whole entry): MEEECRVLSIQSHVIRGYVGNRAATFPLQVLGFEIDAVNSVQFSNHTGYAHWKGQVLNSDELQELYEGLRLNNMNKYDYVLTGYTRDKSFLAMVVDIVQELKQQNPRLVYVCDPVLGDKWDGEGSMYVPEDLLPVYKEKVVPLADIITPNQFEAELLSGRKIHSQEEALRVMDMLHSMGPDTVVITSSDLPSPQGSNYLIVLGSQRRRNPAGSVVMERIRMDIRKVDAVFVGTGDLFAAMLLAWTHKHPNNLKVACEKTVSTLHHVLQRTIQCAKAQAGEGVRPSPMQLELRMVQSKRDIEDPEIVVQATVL

Test [10] addresses T5, Succinate--CoA ligase [ADP-forming] subunit beta, mitochondrial (Homo sapiens, UniProt Q9P2R7).
T5 sequence (Q9P2R7 whole entry): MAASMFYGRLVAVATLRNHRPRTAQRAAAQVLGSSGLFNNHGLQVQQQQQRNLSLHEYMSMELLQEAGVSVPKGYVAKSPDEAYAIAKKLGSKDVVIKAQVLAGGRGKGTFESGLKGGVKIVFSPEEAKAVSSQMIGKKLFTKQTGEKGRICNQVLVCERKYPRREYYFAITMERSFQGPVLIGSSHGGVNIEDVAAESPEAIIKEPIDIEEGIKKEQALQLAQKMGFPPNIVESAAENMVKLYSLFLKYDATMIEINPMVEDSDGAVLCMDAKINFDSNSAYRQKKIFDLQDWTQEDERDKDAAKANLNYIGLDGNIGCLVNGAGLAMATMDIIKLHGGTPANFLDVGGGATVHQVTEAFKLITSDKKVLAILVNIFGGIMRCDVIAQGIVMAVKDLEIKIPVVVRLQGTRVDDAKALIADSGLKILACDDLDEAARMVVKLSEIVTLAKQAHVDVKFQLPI

Active and inactive are the calls of the source.
Note: in the data inactive means no Kd found up to 30 µM.

LIM domain kinase 1, sequence (P53667 whole entry, the tested form may be a part): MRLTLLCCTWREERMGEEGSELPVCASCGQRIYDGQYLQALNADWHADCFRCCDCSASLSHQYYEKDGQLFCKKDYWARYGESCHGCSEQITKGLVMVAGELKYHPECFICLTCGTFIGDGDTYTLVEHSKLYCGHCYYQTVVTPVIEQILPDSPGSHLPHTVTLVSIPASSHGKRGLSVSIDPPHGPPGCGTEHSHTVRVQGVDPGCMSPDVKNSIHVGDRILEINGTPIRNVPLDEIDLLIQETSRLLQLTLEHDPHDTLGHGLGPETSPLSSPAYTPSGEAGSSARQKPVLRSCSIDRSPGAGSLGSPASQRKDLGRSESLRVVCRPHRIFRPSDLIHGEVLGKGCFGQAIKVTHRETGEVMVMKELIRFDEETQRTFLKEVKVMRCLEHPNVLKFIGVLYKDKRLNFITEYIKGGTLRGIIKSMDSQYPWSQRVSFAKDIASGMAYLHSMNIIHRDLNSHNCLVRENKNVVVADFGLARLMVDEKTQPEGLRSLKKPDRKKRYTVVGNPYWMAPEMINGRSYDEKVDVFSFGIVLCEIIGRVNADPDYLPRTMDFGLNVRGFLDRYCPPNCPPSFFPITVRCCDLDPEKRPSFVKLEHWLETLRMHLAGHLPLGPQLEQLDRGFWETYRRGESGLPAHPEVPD
Serine/threonine-protein kinase pim-1, sequence (P11309 whole entry): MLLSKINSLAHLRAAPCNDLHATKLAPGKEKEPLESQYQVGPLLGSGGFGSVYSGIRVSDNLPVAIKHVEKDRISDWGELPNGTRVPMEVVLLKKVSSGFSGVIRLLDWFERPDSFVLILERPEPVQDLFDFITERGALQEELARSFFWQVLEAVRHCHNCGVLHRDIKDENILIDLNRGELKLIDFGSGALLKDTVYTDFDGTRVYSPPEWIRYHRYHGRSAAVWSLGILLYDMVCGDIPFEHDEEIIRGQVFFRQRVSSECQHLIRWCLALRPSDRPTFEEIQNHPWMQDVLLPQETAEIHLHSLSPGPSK

What is called Kd is a measure of binding affinity in units of concentration. For the compound `COc1cc(OC)c(/C=C/S(=O)(=O)Cc2ccc(OC)c(NCC(=O)O)c2)c(OC)c1` [RIGOSERTIB], the Kd in [1], in [2], in test [3], in test [4], in [5] and in test [6] was > 30 µM (inactive) in each case. In addition, the Kd in [7], in test [8] and in test [9] was > 30 µM (inactive) throughout.
Consider `O=C(Nc1ccc(-c2ccnc(Nc3ccc(N4CCOCC4)cc3)n2)cc1)C1CCCN1` (stereo unspecified) [XL-019], for which the Kd in [2], in test [3], in test [4], in test [5], in test [6] and in [10] was > 30 µM (inactive) throughout. In addition, the Kd in test [7], in test [8] and in [9] was > 30 µM (inactive) in each case.
As to `Cc1c(F)cc(C(=O)NC2CC2)cc1-c1ccc(C(=O)NCC(C)(C)C)cn1` [LOSMAPIMOD], the Kd in test [1], in test [2], in test [3], in test [4], in [5] and in test [10] was > 30 µM (inactive) in each case. For the same compound, the Kd in [7], in test [8] and in [9] was > 30 µM (inactive) throughout.
Turning to `C[C@@H]1CN(Cc2ccc(F)cc2)[C@@H](C)CN1C(=O)c1cc2c(C(=O)C(=O)N(C)C)cn(C)c2cc1Cl` [TALMAPIMOD], the Kd in [1], in test [2], in [3], in test [4], in test [5] and in test [10] was > 30 µM (inactive) throughout. Also, the Kd in [7], in test [8] and in [9] was > 30 µM (inactive) in each case.
`CNC(=O)c1ccc(C)c(-n2c(C)cc(OCc3ccc(F)cc3F)c(Br)c2=O)c1` [PH-797804]: the Kd in test [1], in [2], in test [3], in test [4], in test [5] and in test [10] was > 30 µM (inactive) throughout. The Kd in test [7], in test [8] and in test [9] was > 30 µM (inactive) each time.
On to `COc1cc2nccc(Oc3ccc(NC(=O)Nc4cc(C)on4)c(Cl)c3)c2cc1OC` [TIVOZANIB], for which the Kd in [1], in test [2], in test [3], in test [5], in [10] and in [7] was > 30 µM (inactive) in each case. Moreover, the Kd in test [8] and in test [9] was > 30 µM (inactive) each time.
As for `Cc1nc(N)sc1-c1ccnc(Nc2ccc(N3CCOCC3)cc2)n1` [CYC-116], the Kd in test [1] was 0.984 µM (active); in [2] it was 0.057 µM (active); in test [3] it was > 30 µM (inactive); in test [4] it was > 30 µM (inactive); in [5], > 30 µM (inactive); in [6], > 30 µM (inactive). Also, the Kd in test [10], in [8] and in test [9] was > 30 µM (inactive) each time.
As to `CN1CCC(CNc2ccc3ncc(-c4cccc(OC(F)(F)F)c4)n3n2)CC1` [SGI-1776], the Kd was > 30 µM (inactive) in test [1]; 0.026 µM (active) in test [2]; > 30 µM (inactive) in test [3]; > 30 µM (inactive) in test [4]; > 30 µM (inactive) in [5]; > 30 µM (inactive) in test [6]. Besides, the Kd in test [10], in [8] and in [9] was > 30 µM (inactive) throughout.

Values taken from ChEMBL document CHEMBL3991601, “The target landscape of clinical kinase drugs” (Science, 2017).
